Literature values, collected in patent publication US20100189788A1 (Teva Pharmaceutical Industries, Ltd., priority 2009, published 2010).

Details: such as hexane toluene and ethylacetate; in words

- solubility in non-polar organic solvents: very soluble
SMILES: C#CCN[C@@H]1CCc2ccccc21 [rasagiline, R(+)-N-propargyl-1-aminoindan]
